Patent publication US10232023B2, “Methods for treatment of and prophylaxis against inflammatory disorders” (THE UNIVERSITY OF UTAH RESEARCH FOUNDATION, priority 2013, dated 2019)
“Also recorded” adds a separate entry of the source.

What was measured:
[1] = tested on: PMNs isolated from healthy adult donors; assay: PMN chemotaxis, modified Boyden Chamber assay; assay type: cell-based, human; conditions: 1 nM, one hour pre-incubation; IL-8 2 ng/mL
Protocol: Chemotaxis by PMNs isolated from healthy adult donors was assessed using a modified Boyden Chamber assay±a one hour pre-incubation […] (1 nM), or SCR (1 nM). Recombinant human IL-8 (2 ng/mL) was used as the chemoattractant. Chemotaxis through a 5 micron filter was determined by counting PMNs in 10 randomly selected high-power fields as previously described in Hill et al., Lancet, 1974, 2: 617-619. In separate experiments, […], or SCR (all at 1 nM) were evaluated for chemoattractant activity using the same system.

[2] = tested on: human platelets; assay: Platelet activation (P-selectin expression); assay type: cell-based; conditions: given alone or following thrombin stimulation (0.1 IU/mL)
Protocol: Using protocols modified from van Velzen, et al., Thromb Res, 2012, 130: 92-98, human platelets (1×10^8 cells/mL) were incubated with CRISPP or SCR (0.1-10 ng/ml) for 1 hour followed by stimulation with thrombin (0.1 IU/mL) or control M-199 media for 15 minutes. The cells were prepared for FACS analysis with the following primary, monoclonal antibodies for 20 minutes: PE-conjugated CD41a (platelet-specific marker) and FITC-conjugated CD62P (P-selectin). Isotype and fluorochrome matched control antibodies were used. After incubation at room temperature in the dark, the cells were lysed with FACS lysis buffer and analyzed by flow cytometry (BECTON-DICKINSON FACSCAN, CELLQUEST software).

[3] = tested on: LPS-stimulated human PMNs; assay: Reactive oxygen species generation, dihydrorhodamine assay; assay type: cell-based; conditions: 1 nM, 1 hour pre-incubation; LPS 100 ng/mL
Protocol: Human PMNs isolated from healthy adult whole blood were resuspended to a concentration of 2×10^6 cells/mL in M-199 media and pre-incubated±[…] (1 nM) or SCR (1 nM) peptide for 1 hour under standard conditions. The PMNs were then stimulated with LPS (100 ng/mL) for 1 hour, washed, and resuspended with a dihydrorhodamine (7.25 mM; D-632, MOLECULAR PROBES) and catalase (1000 Units/mL; C-40, SIGMA) mixture and incubated at 37° C. for 10 minutes. After incubation, samples were placed at 4° C. and analyzed for ROS-dependent fluorescence using a BECTON-DICKINSON FACSCAN device equipped with CELLQUEST software.

[4] = tested on: human PMNs incubated with dengue virus; assay: Dengue virus-induced NET formation by human PMNs; assay type: cell-based; conditions: pretreatment 1 nM, 1 hour; dengue virus 0.05 MOI
Protocol: Mock incubation using dengue virus media without infection served as a control. Dengue virus induced NET formation by PMNs from human adults.
Primary PMNs isolated from healthy adults (2×10^6 cells/mL) were incubated with mock infection buffer or live dengue virus (MOI 0.05), as for the live cell imaging discussed above. After a 1 hour incubation, the infected PMNs were fixed with 2% p-FA for 10 minutes prior to incubation with fluorescently-labeled, cell permeable and cell impermeable DNA dyes, and imaged as for live cell imaging using confocal microscopy.

[5] = tested on: PMA-stimulated adult PMNs; assay: NET formation by PMA-stimulated adult human PMNs; assay type: cell-based; conditions: pre-incubation 1 nM, 1 hour; PMA 20 nM
Protocol: NET formation by PMA-stimulated adult PMNs with or without CRISPP pre-incubation was assessed.
Human PMNs isolated from healthy adult donors were stimulated with LPS (100 ng/mL) or phorbal-12-mystirate (PMA; 20 nM), ±nNIF (1 nM) or CRISPP (1 nM), pre-incubation (1 hour). Scrambled control peptide (SCR) generated using the identical amino acid content as CRISPP but linked in a random order was used as a control. NET formation was assessed 2 hours after stimulation.
Briefly, primary PMNs isolated from preterm infants, healthy term infants, and healthy adults (2×10^6 cells/mL) were incubated with control buffer or stimulated with LPS (100 ng/mL), PMA (20 nM), or S. aureus bacteria (MOI 100) for 1 hour at 37° C. in 5% CO2/95% air on glass coverslips coated with poly-L-lysine. For selected experiments, primary PMNs were pre-incubated with autologous plasma, cord blood plasma, nNIF (1 nM), CRISPP (1 nM), or SCR (1 nM) for 1 hour prior to imaging. After pre-incubation and/or stimulation, PMNs were gently washed with PBS and incubated with a mixture of cell permeable (SYTO Green, MOLECULAR PROBES) and impermeable (SYTOX Orange, MOLECULAR PROBES) DNA fluorescent dyes. Confocal microscopy was accomplished using a FV300 1×81 Microscope and FLUOVIEW software (OLYMPUS). Both 20× and 60× objectives were used. Z-series images were obtained at a step size 1 μm over a range of 20 μm for each field. OLYMPUS FLUOVIEW and ADOBE PHOTOSHOP CS2 software were used for image processing.
Supernatant total histone H3 content was determined as previously referenced in McInturff et al., Blood, 2012, 120: 3118-3125. After live cell imaging of control and stimulated primary PMNs (2×10^6/mL; various agonists), the cells were incubated with PBS containing DNase (40 U/mL) for 15 minutes at room temperature to break down and release NETs formed in response to stimulation. The supernatant was gently removed and centrifuged at 420×g for 5 minutes. The cell-free supernatant was then mixed 1:3 with 4× Laemmli buffer prior to western blotting. A polyclonal primary antibody against human histone H3 protein (CELL SIGNALING TECHNOLOGY) and infrared secondary antibodies (LI-COR BIOSCIENCES) were used. Imaging and densitometry were performed on the ODYSSEY™ infrared imaging system (LI-COR BIOSCIENCES).

[6] = tested on: human PMNs incubated with live S. aureus; assay: NET formation by human PMNs incubated with live S. aureus; assay type: cell-based; conditions: pretreatment 1 nM; live S. aureus (MOI 100)
Protocol: A human histone H3 release assay was used to quantify NET formation (n=2). NET-inhibitory activity of CRISPP was tested using in vitro models of two human infectious diseases: Staphylococcus aureus bacteremia and dengue fever.
Qualitative assessment of NET formation was performed as previously referenced in Yost et al., Blood, 2009, 113: 6419-6427 and McInturff et al., Blood, 2012, 120: 3118-3125. Briefly, primary PMNs isolated from preterm infants, healthy term infants, and healthy adults (2×10^6 cells/mL) were incubated with control buffer or stimulated with LPS (100 ng/mL), PMA (20 nM), or S. aureus bacteria (MOI 100) for 1 hour at 37° C. in 5% CO2/95% air on glass coverslips coated with poly-L-lysine. For selected experiments, primary PMNs were pre-incubated with autologous plasma, cord blood plasma, nNIF (1 nM), CRISPP (1 nM), or SCR (1 nM) for 1 hour prior to imaging. After pre-incubation and/or stimulation, PMNs were gently washed with PBS and incubated with a mixture of cell permeable (SYTO Green, MOLECULAR PROBES) and impermeable (SYTOX Orange, MOLECULAR PROBES) DNA fluorescent dyes. Confocal microscopy was accomplished using a FV300 1×81 Microscope and FLUOVIEW software (OLYMPUS). Both 20× and 60× objectives were used. […]
Supernatant total histone H3 content was determined as previously referenced in McInturff et al., Blood, 2012, 120: 3118-3125. […]

[7] = tested on: PMNs isolated from healthy adult donors; assay: PMN phagocytosis of E. coli BIOPARTICLES; assay type: cell-based, human; conditions: 1 nM, 60 minutes pre-incubation, 4 hours
Protocol: PMNs were isolated from blood of healthy adult donors and resuspended in M-199 at a concentration of 2×10^6 cells/mL. Leukocytes were pre-incubated for 60 minutes under standard conditions with cytochalasin B and […] (1 nM), or SCR (1 nM). Following pre-incubation, PMNs were incubated with 6×10^6 E. coli BIOPARTICLES (E-13231, MOLECULAR PROBES) on a rotator for 4 hours under standard conditions. The PMNs were then washed and resuspended in the starting volume in M-199 before being spun down onto glass coverslips and fixed with 2% paraformaldehyde for 10 minutes and permeabilized with 0.1% Triton-X-100 for 10 minutes. Leukocytes were stained with WGA 555 (INVITROGEN) and TO[…] (MOLECULAR PROBES) and randomly selected high power visual field images were captured using confocal microscopy. IMAGE-J software (NIH) was used to determine the percentage of PMNs that were positive for fluorescently labeled E. coli BIOPARTICLES detected at 488 nm.

Cancer-Associated SCM-Recognition, Immune Defense Suppression, and Serine Protease Protection Peptide [CRISPP, nNIF-related peptide (nNRP)]
PMN chemotaxis [1]: did not significantly inhibit
Platelet p-selectin expression [2]: did not alter
Reactive oxygen species generation [3]: did not significantly inhibit
NET formation induced by dengue virus [4]: completely blocked NET formation; also recorded: inhibited NET formation
NET formation by PMA-stimulated PMNs [5]: significantly inhibited NET formation
NET formation induced by S. aureus [6]: completely blocked NET formation; also recorded: inhibited NET formation
PMN phagocytosis [7]: did not significantly inhibit
